From patent US20150344540A1, “NOVEL GLP-1 RECEPTOR AGONISTS WITH CHOLESTEROL EFFLUX ACTIVITY” (NOVO NORDISK A/S, priority 2012, published 2015)

Legend:
[1] = test system: Mouse monocyte/macrophage cell line, RAW 264.7; assay: Cholesterol efflux assay (3H-cholesterol, macrophage cell line); type: cell-based; conditions: RAW 264.7, 4 hrs incubation, 0.1% human serum albumin, ABCA1-mediated efflux
[2] = biological target: human GLP-1 receptor (Homo sapiens, UniProt P43220); assay: Functional GLP-1 receptor assay, in vitro potency (CRE luciferase; whole cells); type: cell-based; conditions: GLP1R CRE luc 1% HSA EC50 Mean Value, BHK cells expressing human GLP-1 receptor, 1% HSA
human GLP-1 receptor, sequence (P43220 24-463): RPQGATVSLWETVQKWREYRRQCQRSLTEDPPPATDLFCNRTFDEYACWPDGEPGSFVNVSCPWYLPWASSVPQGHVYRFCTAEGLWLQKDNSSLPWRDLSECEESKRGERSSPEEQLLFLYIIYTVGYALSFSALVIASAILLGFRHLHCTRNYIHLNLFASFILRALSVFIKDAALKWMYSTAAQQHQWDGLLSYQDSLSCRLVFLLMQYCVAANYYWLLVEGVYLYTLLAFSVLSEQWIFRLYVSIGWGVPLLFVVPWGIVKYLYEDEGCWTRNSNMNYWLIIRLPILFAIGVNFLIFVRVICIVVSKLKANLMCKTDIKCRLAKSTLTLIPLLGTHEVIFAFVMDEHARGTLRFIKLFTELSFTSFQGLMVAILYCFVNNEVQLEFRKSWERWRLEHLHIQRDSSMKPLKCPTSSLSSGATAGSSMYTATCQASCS

[3] = Physical stability assay, dynamic light scattering; type: physicochemical
Excerpt: Physical stability can be assessed by dynamic and static light scattering. In dynamic light scattering, microsecond fluctuations in scattered laser light incident on a aqueous sample is detected and transformed into diffusion coefficients (Df) of the individual species via the so-called autocorrelation function. For convenience, the diffusion coefficients are typically reported in hydrodynamic radii (Rh) assuming the sample to consist of spherical species. Furthermore, from the radii, an empirical estimate of the molecular weight is obtained. Dynamic light scattering is extremely sensitive and can resolve very small amounts of aggregated species that are undesirable in pharmaceutical formulations. The average, static intensity recorded by the detector also serves as an overall measure of the physical stability of the sample as development of larger species increase the scattered intensity drastically. In order to measure the physical stability of peptides, DLS was applied to aqueous solutions of peptides. Measurements were performed on a Wyatt (Santa Barbara, Calif.) DynaPro DLS plate reader at 25° C., and samples were kept at 37° C. between measurements. Samples were measured for up to two weeks. Measurements were performed in […] triplicate in Corning 3540 384-well microtiter plates (Corning, N.Y.) sealed with transparent plastic foil (Thermo Fischer Scientific, Waltham, Mass.) with twenty 10-second acquisitions per measurement. Autocorrelation curves were fitted with a regularization fit in Dynamics 7.1.7.16 and the resulting diffusion coefficients were transformed into hydrodynamic radii and molecular mass assuming a spherical shape (Table 2). Normalized intensities are reported as is.
Judging from the autocorrelation functions and the normalized static intensity, only minute amounts of aggregate were present at any time independent of sample concentration.

[4] = Mechanical stress experiment, Thioflavin T fibrillation assay; type: physicochemical; conditions: 45 hour mechanical stress, 37° C., samples A-D
Description: In order to determine the physical stability of peptides in solution an accelerated mechanical stress assay was performed. Samples were prepared just before starting the assay. Samples may be prepared in the pH range 3-9 and with peptide concentrations in the range 0-20 mM. Samples may contain buffers such as phosphate, acetate, Tris. Samples may contain antimicrobial preservatives such as phenol or m-cresol.
The pH of the sample was adjusted to the desired value using NaOH and HCl. Thioflavin T was added to the samples from a stock solution in H2O to a final concentration of 5 μM.
Aliquots of each sample were transferred to a 96 well microtiter plate (Packard OptiPlate™-96, white polystyrene) with 200 μL in each well. For each sample data may be recorded for one well or for two or more replicas (two or more wells). […]
Incubation at a selected temperature, mechanical stress and measurement of Thioflavin T fluorescence was performed using a Fluoroskan Ascent FL fluorescence platereader (Thermo Labsystems). […] Fluorescence measurement was performed using excitation through a 444 nm filter and measurement of emission through a 485 nm filter. The fluorescence was measured every 20 minutes during the experiment.
The fluorescence from Thioflavin T was plotted against duration of mechanical stress. A substantial increase in fluorescence from Thioflavin T indicates amyloid fibril formation. […]

[5] = Pharmacokinetics in normal mice after i.v. and s.c. administration; type: in vivo, female C57B1/6J mice
Description: The mice, 60 female C57B1/6J were purchased from Taconic, arriving at Novo Nordisk A/S Animal Unit at 6-7 weeks of age. The mice were housed according to standard rules in the animal unit and given free access to standard chow and tap water. The animals were kept at a room temperature and housed in groups of 8 mice, with free access to food and water, according to Animal Unit's SOP (Housing of experimental animals at Novo Nordisk A/S).
Peptide is administered as a single dose either s.c. or i.v.
After the 2nd sample the mice were sacrificed. The plasma concentrations of the compounds with intact N-terminus were determined using a Luminescence Oxygen Chanelling Immuno-assay (LOCI). The donor beads were coated with streptavidin, while acceptor beads were conjugated with a monoclonal antibody recognizing a mid-/C-terminal epitope of the peptide. The other monoclonal antibody, specific for the N-terminus, was biotinylated. The three reactants were combined with the analyte and formed a two-sited immuno-complex. Illumination of the complex released singlet oxygen atoms from the donor beads, which were channeled into the acceptor beads and triggered chemiluminescence which was measured in an Envision plate reader. The amount of light was proportional to the concentration of the compound.

[6] = Pharmacokinetics in mini-pigs after i.v. administration; conditions: female, Göttingen, minipig, plasma, iv, 5 nmol/kg
Procedure, shortened: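 Female Göttingen mini-pigs (15-20 kg, N=3) received 5 nmol/kg i.v. via central venous catheter. Plasma levels of N-terminally intact peptide measured by LOCI immunoassay with N-terminal and mid-/C-terminal antibodies; non-compartmental analysis of individual profiles.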

[7] = female, C57B1/6J, mouse, plasma, sc

With `CC[C@H](C)[C@H](NC(=O)[C@H](Cc1ccccc1)NC(=O)[C@H](CCC(=O)O)NC(=O)[C@H](CCCCN)NC(=O)[C@@H](NC(=O)[C@H](C)NC(=O)[C@H](CCC(=O)O)NC(=O)CNC(=O)[C@H](CCC(=O)O)NC(=O)[C@H](CC(C)C)NC(=O)[C@H](Cc1ccc(O)cc1)NC(=O)[C@H](CO)NC(=O)[C@H](CO)NC(=O)[C@@H](NC(=O)[C@H](CC(=O)O)NC(=O)[C@H](CO)NC(=O)[C@@H](NC(=O)[C@H](Cc1ccccc1)NC(=O)[C@@H](NC(=O)CNC(=O)[C@H](CCC(=O)O)NC(=O)C(C)(C)NC(=O)[C@@H](N)Cc1c[nH]cn1)[C@@H](C)O)[C@@H](C)O)C(C)C)C(C)C)C(=O)N[C@@H](C)C(=O)N[C@@H](Cc1c[nH]c2ccccc12)C(=O)N[C@@H](CC(C)C)C(=O)N[C@H](C(=O)N[C@@H](CCC(=O)O)C(=O)N[C@@H](CCCCN)C(=O)NC(C)(C)C(=O)N[C@@H](CCCCN)C(=O)N[C@@H](CCC(=O)O)C(=O)N[C@@H](Cc1ccccc1)C(=O)N[C@@H](CC(C)C)C(N)=O)C(C)C` [Compound 1, [Aib8,Glu23,Val25,Glu34,Lys35,Aib36,Lys37]-GLP-1-(7-37)-peptidyl-Glu-Phe-Leu amide] the “4 h Cholesterol Efflux Emax” value [1] was 100%, the EC50 [2] was 111 pM and the Inorm avg. ([3]; 0.9 mg/mL, 37° C., t 0 days) was 1.15E+06 kcts. For the same compound, the Rh avg. ([3]; 0.9 mg/mL, 37° C., t 0 days) was 2.32 nm, the Inorm avg. ([3]; 0.9 mg/mL, 37° C., t 1 days) was 1.48E+06 kcts and the Rh avg. ([3]; 0.9 mg/mL, 37° C., t 1 days) was 2.31 nm. It also gave an Inorm avg. ([3]; 0.9 mg/mL, 37° C., t 4 days) of 3.76E+06 kcts, a Rh avg. ([3]; 0.9 mg/mL, 37° C., t 4 days) of 1.94 nm and an Inorm avg. ([3]; 0.9 mg/mL, 37° C., t 8 days) of 1.27E+06 kcts. For the same compound, the Rh avg. ([3]; 0.9 mg/mL, 37° C., t 8 days) was 2.26 nm, the Inorm avg. ([3]; 0.9 mg/mL, 37° C., t 13 days) was 2.25E+06 kcts and the Rh avg. ([3]; 0.9 mg/mL, 37° C., t 13 days) was 2.44 nm. The “oligomer size (molecular weight consistent with number of monomers)” value ([3]; 20 mM phosphate pH 7.5 buffer, 0.9 mg/mL or 45.5 mg/mL) was “approximately 4 monomers”, the “oligomer stability by DLS” value ([3]; 20 mM phosphate pH 7.5 buffer, 0.9 mg/mL or 45.5 mg/mL, 37° C., up to two weeks) was “remained stable throughout the sample period” and the Inorm avg. ([3]; 45.5 mg/mL, 37° C., t 0 days) was 8.33E+06 kcts. It also gave a Rh avg. ([3]; 45.5 mg/mL, 37° C., t 0 days) of 2.13 nm, an Inorm avg. ([3]; 45.5 mg/mL, 37° C., t 1 days) of 9.29E+06 kcts and a Rh avg. ([3]; 45.5 mg/mL, 37° C., t 1 days) of 2.27 nm. The Inorm avg. ([3]; 45.5 mg/mL, 37° C., t 4 days) was 1.04E+07 kcts, the Rh avg. ([3]; 45.5 mg/mL, 37° C., t 4 days) was 2.27 nm and the Inorm avg. ([3]; 45.5 mg/mL, 37° C., t 6 days) was 6.55E+06 kcts. The Rh avg. ([3]; 45.5 mg/mL, 37° C., t 6 days) was 2.35 nm, the Inorm avg. ([3]; 45.5 mg/mL, 37° C., t 14 days) was 7.18E+06 kcts and the Rh avg. ([3]; 45.5 mg/mL, 37° C., t 14 days) was 2.28 nm. For the same compound, the “fibril formation (Thioflavin T fluorescence)” value [4] was “did not show signs of fibril formation”, the half-life ([5]; female, C57B1/6J, mouse, plasma, iv) was 6.7 h and the Vd ([5]; female, C57B1/6J, mouse, plasma, iv, read-out: Volume of distribution) was 0.0456 L/kg. The Tmax [5, 7] was 4 h, the half-life [5, 7] was 11.5 h and the clearance ([5]; mice, i.v., Compound 1 dose 99 nmol/kg, Compound 5 dose 135 nmol/kg) was 4.69 mL/h/kg. The Volume of distribution ([5]; mice, s.c., Compound 1 dose 323 nmol/kg, Compound 5 dose 62 nmol/kg) was 0.1592 L/kg, the C0 [6] was 57.2 nM and the Vd [6] was 0.16 L/kg. It also gave a clearance [6] of 3.3 mL/h/kg, a half-life ([6]; T1/2, mini-pigs) of 33.7 h and a half-life ([6]; T1/2 Mean Value, Göttingen mini-pigs, N=3) of 33.7 h.
